{
  "source": "paper PMC6691761",
  "about": "“Potential multifunctional agents with anti-hepatoma and anti-inflammation properties by inhibiting NF-кB activation” (Journal of Enzyme Inhibition and Medicinal Chemistry, 2019)",
  "key": {"[1]": {"tested_on": "human breast cancer cells (MCF-7)", "assay": "Cytotoxicity, MTT assay, MCF-7", "format": "cell-based", "description": "(§1) Compounds 83–102 were screened against human neoplastic cell lines, such as human breast cancer cells (MCF-7), human colon cancer cells (HCT116), human lung carcinoma cells (A549), human gastric adenocarcinoma cells (SGC7901), human liver hepatocellular carcinoma cell line (HepG2), human cervical carcinoma cells (HeLa), human acute mononuclear granulocyte leukaemia (THP-1), and human normal hepatic cell line (LO2) using modified MTT assay. All the cells were obtained from the American Type Culture Collection (ATCC, Manassas, VA). The cells were cultured in DMEM or 1640. Positive controls (Doxorubicin (DOX) and Curcumin) and BAPs were initially dissolved in dimethyl sulphoxide (DMSO). Experimental concentration of DMSO was always 0.1% (v/v). The concentrations of BAPs and positive controls were 50, 20, 10, 5, 2.5, 1, 0.5, 0.1, 0.05, and 0.01 μg/mL.\n(§2) The cells (1 × 10^4 cells/well) were seeded in a 96-well plate and incubated for 24 h. Cells treated with serial concentrations of drugs were incubated for another 24 h. After the media removed, 20 μL of MTT (5 mg/mL) solution was added and incubated for 4 h at 37 °C. The MTT solution was removed and then 150 μL of DMSO was added. The optical density was measured with a multi-well plate reader (TECAN, Mӓnnedorf, Switzerland) at 570 nm. The results are expressed as a decrease in the cell viability (%) in comparison to untreated controls. The concentration of each compound was examined in triplicate, and the IC50 values are expressed in Table 1."}, "[2]": {"tested_on": "human colon cancer cells (HCT116)", "assay": "Cytotoxicity, MTT assay, HCT116", "format": "cell-based", "description": "as §1, §2"}, "[3]": {"tested_on": "human lung carcinoma cells (A549)", "assay": "Cytotoxicity, MTT assay, A549", "format": "cell-based", "description": "as §1, §2"}, "[4]": {"tested_on": "human gastric adenocarcinoma cells (SGC7901)", "assay": "Cytotoxicity, MTT assay, SGC7901", "format": "cell-based", "description": "as §1, §2"}, "[5]": {"tested_on": "human liver hepatocellular carcinoma cell line (HepG2)", "assay": "Cytotoxicity, MTT assay, HepG2", "format": "cell-based", "description": "as §1, §2"}, "[6]": {"tested_on": "human cervical carcinoma cells (HeLa)", "assay": "Cytotoxicity, MTT assay, HeLa", "format": "cell-based", "description": "as §1, §2"}, "[7]": {"tested_on": "human acute mononuclear granulocyte leukaemia (THP-1)", "assay": "Cytotoxicity, MTT assay, THP-1", "format": "cell-based", "description": "as §1, §2"}, "[8]": {"tested_on": "human normal hepatic cell line (LO2)", "assay": "Toxicity to normal cells, MTT assay, LO2", "format": "cell-based", "settings": "Homo sapiens, 24 h", "description": "as §1, §2"}, "HepG2 xenografts [9]": {"tested_on": "HepG2 xenografts", "assay": "HepG2 xenografts growth in nude mice", "format": "in vivo, Balb/c nude mice", "settings": "1.0 mg/kg intraperitoneally every 2 d for 20 days", "method": "(§3) The HepG2 cells xenografts were established using the Balb/c nude mice (female, 7-week-old, 17–19 g, n = 30) (Shanghai Laboratory Animal Center, Shanghai Shi, China) were used to investigate the anti-hepatoma effect of 96. Animal experiments were reviewed and approved by the Binzhou Medical University Experimental Animal Committee. Briefly, HepG2 cells (1 × 10^7/0.2 ml PBS/mouse) were inoculated subcutaneously. Three days after the inoculation, the mice were randomly divided into five groups: the saline treated group (Control), 96 (0.2 mg/kg) group, 96 (1.0 mg/kg) treated group, 96 (5.0 mg/kg) treated group, and DOX (1.0 mg/kg) treated group. 96 were dissolved in saline containing 1% of DMSO and administered intraperitoneally every 2 d for 20 days. DOX was also administered intraperitoneally every 2 d for 20 d. The body weight and HepG2 xenografts volumes were recorded from the day of treatment, and xenografts volumes were calculated using the equation: tumour volume = length×(width)[2]×π/6. At the end of the experiment, mice were sacrificed and the xenografts were obtained for western blotting, HE staining and immunohistochemistry staining."}, "HepG2 xenografts [10]": {"tested_on": "HepG2 xenografts", "assay": "HE staining of HepG2 xenografts", "format": "in vivo, Balb/c nude mice", "method": "as §3\nThe HepG2 xenografts tissues were embedded using the paraffin, and sectioned for HE staining and immunohistochemistry staining. HE staining was performed routinely. The immunohistochemistry staining carried out as following. Briefly, the processed sections were incubated with the primary antibodies: Bcl-2 and TNF-α (NOVUS BIOLOGICALS) at 4 °C overnight. After washing, the anti-rabbit peroxidase-conjugated secondary antibody (Sigma-Aldrich, St. Louis, MO) was incubated for 1 h at RT. After washing with PBS, the cells were visualized using the 3,3'-diaminobenzidine (DAB) solution under the light microscope. The cell images were taken using a light microscopy (Olympus, Tokyo, Japan)."}, "[11]": {"tested_on": "Bcl-2 expression in HepG2 xenografts", "assay": "Immunohistochemistry staining of Bcl-2 in HepG2 xenografts", "format": "in vivo, Balb/c nude mice", "settings": "96 5.0 mg/kg, DOX 1.0 mg/kg, versus model group", "method": "as §3\n(§4) The HepG2 xenografts tissues were embedded using the paraffin, and sectioned for HE staining and immunohistochemistry staining. HE staining was performed routinely. The immunohistochemistry staining carried out as following. […]"}, "[12]": {"tested_on": "TNF-α expression in HepG2 xenografts", "assay": "Immunohistochemistry staining of TNF-α in HepG2 xenografts", "format": "in vivo, Balb/c nude mice", "settings": "96 5.0 mg/kg, DOX 1.0 mg/kg, versus model group", "method": "as §3, §4"}, "[13]": {"settings": "quotient of IC50 towards LO2 cells"}},
  "data": [
    {"compound": "COc1cccc2c1C(=O)c1c(O)c3c(c(O)c1C2=O)C[C@@](O)(C(=O)CO)C[C@@H]3O[C@H]1C[C@H](N)[C@H](O)[C@H](C)O1", "note": "[DOX, Doxorubicin, reference compound]", "values": [
      {"measurement": "IC50", "setting": "[1]; Homo sapiens, MCF7, MTT, 24 h", "result": "2.8 ± 0.7", "unit": "µM"},
      {"measurement": "MCF-7 SI (selectivity index)", "setting": "[1]; [13]", "result": 1.7},
      {"measurement": "IC50", "setting": "[2]; Homo sapiens, HCT-116, MTT, 24 h", "result": "3.5 ± 0.1", "unit": "µM"},
      {"measurement": "HCT116 SI (selectivity index)", "setting": "[2]; [13]", "result": 1.3},
      {"measurement": "IC50", "setting": "[3]; Homo sapiens, A549, 24 h, MTT, 24 h", "result": "3.4 ± 0.4", "unit": "µM"},
      {"measurement": "A549 SI (selectivity index)", "setting": "[3]; [13]", "result": 1.4},
      {"measurement": "IC50", "setting": "[4]; Homo sapiens, SGC-7901, MTT, 24 h", "result": "3.3 ± 0.5", "unit": "µM"},
      {"measurement": "SGC7901 SI (selectivity index)", "setting": "[4]; [13]", "result": 1.4},
      {"measurement": "IC50", "setting": "[5]; Homo sapiens, HepG2, 24 h, MTT, 24 h", "result": "1.2 ± 0.1", "unit": "µM"},
      {"measurement": "HepG2 SI (selectivity index)", "setting": "[5]; [13]", "result": 3.9},
      {"measurement": "IC50", "setting": "[6]; Homo sapiens, HeLa, MTT, 24 h", "result": "7 ± 0.3", "unit": "µM"},
      {"measurement": "HeLa SI (selectivity index)", "setting": "[6]; [13]", "result": 0.7},
      {"measurement": "IC50", "setting": "[7]; Homo sapiens, THP-1, 24 h, MTT, 24 h", "result": "9.5 ± 0.8", "unit": "µM"},
      {"measurement": "THP-1 SI (selectivity index)", "setting": "[7]; [13]", "result": 0.5},
      {"measurement": "IC50", "setting": "[8]", "result": "4.7 ± 0.7", "unit": "µM"},
      {"measurement": "Growth of HepG2 xenografts", "setting": "HepG2 xenografts [9]", "result": "significantly inhibited the growth of HepG2 xenografts"},
      {"measurement": "Fracted cells, HE staining", "setting": "HepG2 xenografts [10]; 96 5.0 mg/kg, DOX 1.0 mg/kg", "result": "a plenty of fracted cells"},
      {"measurement": "Histopathological change of cell nucleus, HE staining", "setting": "HepG2 xenografts [10]; HepG2 xenografts, versus model group", "result": "made the HepG2 cell nucleus wrinkled"},
      {"measurement": "Bcl-2 expression, immunohistochemistry", "setting": "[11]", "result": "significantly reduced"},
      {"measurement": "TNF-α expression, immunohistochemistry", "setting": "[12]", "result": "significantly reduced"}
    ]}
  ]
}
